Consider 101 compounds from the pKa sets of Baltruschat and Czodrowski (2020).

For the first data set the following is noted: acidic group.
For `Cc1c[nH]cc1C(=O)O`, the pKa was determined as 5.65. As for `Oc1cc[nH+]c2ccccc12`, the pKa was 2.27. The compound `c1ncc2[nH]nnc2n1` showed a pKa of 4.88.

For `O=C1CC[C@@H](C(=O)O)N1`, the pKa was 3.4.

Compound `CC(=O)CC(=O)Nc1cccc(C)c1` yielded a pKa of 10. The same measure, in the same setting: in the case of `O=C1C[C@H](C(=O)O)[C@@H](C(=O)[O-])O1` it was 3.82; in that of `C[C@@H]1CC[C@H](C)[C@@H]1C(=O)O`, 5.4. As to `OB(O)CCc1ccccc1`, the pKa came out at 10.

Consider `O=S(=O)(Nc1cccc(F)c1)c1ccccc1`, for which the pKa was 7.54. In the case of `CC(C)(O)C(C(=O)O)c1ccc(C2CCCCC2)cc1` (stereo not drawn), the pKa was found to be 3.76. The compound `Sc1cccc(Cl)c1` returned a pKa of 5.76.

`COc1ccc(C(=S)Nc2ccc(C)cc2)cc1` had a pKa of 11.8.

Compound `Nc1c2ccccc2[nH+]c2cc(O)ccc12` gave a pKa of 6.63. `Cc1ccc(N[N+](=O)[O-])cc1` had a pKa of 4.88. For the compound `O=C([O-])CS`, the pKa was 10.2. In turn, `Oc1ccc2cc(Cl)ccc2c1` registered a pKa of 9.31.

As to `CC(=O)N1CS(=O)C[C@H]1C(=O)O` (stereo partly drawn), the pKa is 2.5. For the compound `O=C(O)CNC(=O)c1cccc(O)c1O`, the pKa turned out to be 3.5. Still for that read-out and setting: in the case of `O=C(C1=C(O)C(=O)c2ccccc2C1=O)c1ccccc1` it was 2.17. As to `Cc1cc(O)cc([N+](C)(C)C)c1`, the pKa was determined as 8.2. On to `Nc1[nH+]c2nc[nH]c2c(N)[n+]1O`, for which the pKa was found to be 1.

Regarding `Nc1c[nH+]c(S)nc1N`, the pKa turned out to be 2.96. `CC(C[Si](C)(C)CCl)C(=O)O` (stereo not drawn) returned a pKa of 5.32. Consider `CCCCCCCc1c(-c2ccccc2)nn(-c2ccccc2)c1O`, for which the pKa is 8. In the case of `O=C(O)c1cc2cc(Cn3cc[nH+]c3)ccc2s1`, the pKa worked out at 2.74. With `Cc1n[nH]c(C(=O)O)c1[N+](=O)[O-]`, the pKa was 2.26. Compound `Oc1cccc2nccnc12` returned a pKa of 8.8. `CC1CCC(O)(C(C(=O)O)c2ccc(-c3ccccc3)cc2)CC1` (stereo not drawn) displayed a pKa of 3.45. `c1cc[n+]2c(c1)C[n+]1ccccc1C2` showed a pKa of 8.12. The same measure, in the same setting: in the case of `COC(=O)CC(C)=O` it was 10.6. On to `Cc1cc(C)c(/N=N/c2c(C)cc(O)cc2C)c(C)c1`, for which the pKa stood at 9.1. `CC(=O)NS(=O)(=O)c1ccccc1C(=O)O` yielded a pKa of 3.1. As for `O=C(O)[C@@H]1O[C@H](Oc2ccc(-c3ccccc3)cc2)[C@@H](O)[C@H](O)[C@H]1O`, the pKa was determined as 3.1. For the compound `CC(C)Oc1cccc(C(=O)O)c1`, the pKa was 4.15. As for `CCC1=CC(=O)C=C(CC)C1=NO`, the pKa stood at 8.34.

Consider `O=C(O)c1cc(Cl)cc([N+](=O)[O-])c1`, for which the pKa was 2.17.

The compound `Cc1ccc(S(=O)(=O)NC(=O)OCc2ccc([N+](=O)[O-])cc2)cc1` came in with a pKa of 3.8. `Cc1nnc(C)n1N` came in with a pKa of 9.85. Take `Cc1ccc(C(=O)C(=O)O)cc1`: the pKa is 1.52. As for `Nc1nc2nc[nH]c2c(O)[nH+]1`, the pKa came to 3.25. The compound `CCOC(=O)c1ccccc1-n1nc(O)c(CC)c1C` gave a pKa of 12.4. As to `O/N=C/c1ccnc2ccccc12`, the pKa was 10.4. For `O=C1CCc2cc(I)ccc2C1`, the pKa came out at 12.4. Regarding `Oc1ccc(I)cc1`, the pKa amounted to 9.32. Consider `CC(C)C(=O)CC=O`, for which the pKa stood at 6.68. `Cc1cc(O)ccc1Cl` yielded a pKa of 9.4. Still for that read-out and setting: next, `O=C(Cc1ccccc1)c1cc[n+](Cc2ccc([N+](=O)[O-])cc2)cc1`: 8.68; `Nc1ccc(S(=O)(=O)Nc2ccc(N)cn2)cc1`: 8.47.

The data set is the same for the next values; noted with them: basic group.
In turn, `CN(C)c1nc2cc3c(cc2[nH]1)CCCC3` yielded a pKa of 7.65. Regarding `CCC(C)[C@H](N)C(=O)[O-]` (stereo partly drawn), the pKa amounted to 9.62. `[O-]/C(=C/c1ccncc1)c1ccccc1` returned a pKa of 7.05. For `O=[N+]([O-])c1cccc2[nH]ncc12`, the pKa came to 0.42. The compound `COc1ccc(CN)cc1N` returned a pKa of 9.77.

For `Nc1cccc2nnccc12`, the pKa was found to be 2.7. Still for that read-out and setting: next, `O=C1c2ncnc([O-])c2C(=O)c2nc[nH]c21`: 5.99. On the same count and under the same terms, next, `Cc1ccccn1`: 5.98. In turn, `CC(C)([Se-])CN` came in with a pKa of 10.9. In turn, `CN(c1ccccc1)C(C)(C)C` returned a pKa of 7.5.

Consider `NCCCCCC(=O)[O-]`, for which the pKa stood at 10.8. `NCC(N)CN`: the pKa is 9.59. In the case of `Clc1cn[nH]c1`, the pKa was 1.24. The same measure, in the same setting: in the case of `CC(C)(C)c1cccnc1` it was 5.82.

`c1cnc2c(c1)ccc1ccc[nH+]c12` yielded a pKa of 2.04. Compound `c1c[nH]c(P(c2[nH]cc[nH+]2)c2[nH]cc[nH+]2)n1` came in with a pKa of 5.26.

Regarding `CCOC(=O)CC(NC)c1ccccc1` (stereo not drawn), the pKa turned out to be 8.23. As for `CN1[C@H]2CC[C@@H]1[C@H](C(=O)[O-])[C@H](O)C2`, the pKa stood at 11.1. In turn, `NC(=O)c1cc(-c2ccccc2)nnc1NCC[NH+]1CCOCC1` registered a pKa of 2.5.

`CNc1ccc[nH+]c1` displayed a pKa of -2.17.

Compound `Cn1ncc2c(N)nc(Cl)nc21` registered a pKa of 2.69. For `[O-]c1ccc(O)c2ccccc12`, the pKa is 11. The compound `CC(=O)N(N)C1CCN(C)CC1` displayed a pKa of 8.7. On the same count and under the same terms, in the case of `Nc1ncnc2c1ncn2C1CCCCC1` it was 4.19; in that of `C[NH2+]CCCN`, 8.66. With `NCc1ccc(O)cc1`, the pKa is 9.14. Compound `CCOC(=O)CCCCCN` registered a pKa of 10.4. `Cc1cc(-c2[nH]cc[nH+]2)n[nH]1` displayed a pKa of 1.5. In the case of `CCN(C)N`, the pKa is 7.3. Turning to `COc1ccccc1C(=N)c1ccccc1`, the pKa amounted to 7.29. Take `CCCNCC[S-]`: the pKa turned out to be 10.9.

For `N#CCc1cccnc1`, the pKa was found to be 3.78. The compound `CC1/C(=N\O)C[C@@H]2N=C(c3ccccc3)O[C@@]13[C@@H]1OC(=O)[C@H](C)[C@H]1CC[C@]23C` (stereo partly drawn) returned a pKa of 4.65. Still for that read-out and setting: in the case of `CC(C)CNCC(C)C` it was 10.6. The compound `Nc1nc2ccccc2[nH]1` returned a pKa of 7.49.

Compound `CNCCO` came in with a pKa of 9.91. The compound `CC(C)Nc1ccccc1` yielded a pKa of 5.67. Same read-out and setting: next, `Oc1cccc2nccnc12`: 0.85. Consider `Cc1ncc[nH+]c1C`, for which the pKa was -4.17.

`[O-]c1cccc(Cl)n1` yielded a pKa of 7.76. In the case of `Cc1n[nH]cc1Cl`, the pKa amounted to 1.4. The compound `C1CCC2CNCCC2C1` (stereo not drawn) had a pKa of 10.9.

Consider `C#CCN(CC#C)CC#C`, for which the pKa was 3.04. Take `[O-]c1cccnn1`: the pKa was 10.5.

As to `CN(C)c1ccc(C(O)(c2ccccc2)c2ccc(N(C)C)cc2)cc1`, the pKa was 6.93. In turn, `O/N=C/c1ccnc2ccccc12` displayed a pKa of 4.55.

With `CNC(C)C(=O)[O-]` (stereo not drawn), the pKa amounted to 10.2. Regarding `Cc1ccc(CON)cc1`, the pKa amounted to 4.4. The compound `CN1CCCN1C` registered a pKa of 6.67.

In turn, `[NH3+]CCCCc1cccnc1` came in with a pKa of 5.52. The compound `Cc1ccc(S(=O)(=O)N2CCNCC2)cc1` registered a pKa of 7.41. Compound `NCCC(=O)NCCc1c[nH]cn1` returned a pKa of 9.21. On the same count and under the same terms, next, `Nc1ccc(-c2ccc(/[NH+]=C/c3ccc(O)cc3)cc2)cc1`: 5.05; `CC(CN(C)C)C(C#N)(c1ccccc1)c1ccccc1` (stereo not drawn): 7.9. On the same count and under the same terms, next, `CC1CN(C)CCN1C` (stereo not drawn): 8.36.
